What was measured:
[1] = system: Subjects With Relapsing-Remitting Multiple Sclerosis (RRMS); experiment: GALA phase 3 trial (GA 40 mg three times a week vs placebo): response categories and ARR by predictive model; assay type: in vivo, human
Description: As used herein, “GALA” is a phase 3 clinical trial entitled “A Study in Subjects With Relapsing-Remitting Multiple Sclerosis (RRMS) to Assess the Efficacy, Safety and Tolerability of Glatiramer Acetate (GA) Injection 40 mg Administered Three Times a Week Compared to Placebo (GALA).” The GALA trial has the ClinicalTrials.gov Identifier NCT01067521, and additional information about the trial can be found at clinicaltrials.gov/ct2/show/NCT01067521.
(§1) Response definitions were received from patients from two large glatiramer acetate clinical trial cohorts (GALA, FORTE) and patients were categorized as responder, non-responder, extreme-responder, or extreme non-responder according to the criteria set forth in Table 1.
(§2) To identify genetic markers associated with high response to Copaxone® comprising the following characteristics: (1) high response as measured by ARR reductions, (2) predictive, not prognostic, markers: associated with response only in Copaxone®-treated patients, and not in the placebo group, (3) markers that are confirmed in an independent cohort, and (4) a subset of GALA and FORTE studies' patients with clarly defined response phenotypes (high responders versus low responders) (FIG. 6) Patient DNA samples were genotyped for 4.3 million genetic variants (Illumina HumanOmni5 array).
(§3) Regression analysis was applied, with the threshold for distinguishing responders from non-responders was selected by analysis of receiver-operator curves. Intermediate responders were genotyped by either Illumina 5M array or focused taqman-based SNP genotyping and Sanger sequencing.

[2] = system: Relapsing-Remitting Multiple Sclerosis (RR-MS) patients; experiment: FORTE phase 3 trial (two doses of GA): response categories and ARR by predictive model; assay type: in vivo, human
Source text: As used herein, “FORTE” is a phase 3 clinical trial entitled “Clinical Trial Comparing Treatment of Relapsing-Remitting Multiple Sclerosis (RR-MS) With Two Doses of Glatiramer Acetate (GA).” The FORTE trial has the ClinicalTrials.gov Identifier NCT00337779 and additional information, including study results can be found at clinicaltrials.gov/ct2/show/NCT00337779.
as §1, §2, §3

[3] = system: genotyped patients of the GALA and FORTE cohorts; experiment: Combined GALA and FORTE cohorts: patient responses predicted by preliminary predictive model (model 3, threshold 0.71); assay type: in vivo, human
Description: A predictive model was generated based on the 11 SNPs shown in tables 32 and 33 and the two Clinical co-variants shown in table 23.
Receiver Operating Characteristic (ROC) analysis was performed using the actual value (case or control) and predicted value for each sample from the multi-marker regression model (FIG. 1). For these preliminary analyses, two risk groups were defined using the predicted values from the multi-marker regression model. The predictive threshold value was set at 0.71 (termed “model 3”) based on a variety of factors after consultation with the Teva team and Teva MS clinical experts.
Ultimately, a threshold that best differentiated between responders and non-responders (minimum positive predictive value of 90% or higher) (FIG. 2), while maximizing the number of predicted responders (predicted responders >60%) (FIG. 3) was selected. This threshold also coincided with the lowest p-value of all the thresholds examined (Chi square p-value 6.1×10^−46, odds ratio 19.9) (FIG. 4). The positive predictive value (% of all predicted responders to be true responders) was 91.1%, sensitivity (% of all true responders detected) was 80.2%; specificity (% of all true non-responders classified as non-responders) was 83.1%; and the negative predictive value ([…]) was 65.9%.
While 40% of patients were classified as “predicted non-responders” with an overall response rate of 34% (FIG. 5).

RRMS subjects = settings: largest controlled study, GA 20 mg; cited from earlier work
[4] = change in ARR < -1 and new T2 lesions = 0 and relapse free
[5] = change in ARR >= 0 and new T2 lesions >= 1
[6] = change in ARR from previous 2 years < -1
[7] = change in ARR from previous 2 years >= 0

Substance: Glatiramer acetate
- Extreme Responders (% of cohort) [1, 4]: (8.5%)
- Extreme Non-Responders (% of cohort) [1, 5]: (10%)
- Responders (% of cohort) [1, 6]: (26%)
- Non-Responders (% of cohort) [1, 7]: (16%)
- Extreme Responders (% of cohort) [2, 4]: (16%)
- Extreme Non-Responders (% of cohort) [2, 5]: (6%)
- Responders (% of cohort) [2, 6]: (36%)
- Non-Responders (% of cohort) [2, 7]: (11%)
- improvement in response rate, predicted responders vs overall cohort ([3]; 68% vs. 91%): 34%
- improved response rate, predicted responders vs predicted non-responders ([3]; P<10^-40): 2.7 fold
- ARR reduced (improved), predicted responders vs overall patient cohort ([3]; human, in vivo): 60%
- nrelapse reduced (improved), predicted responders vs overall patient cohort ([3]; human, in vivo): 58%
- EDSS progression delayed (improved), predicted responders vs predicted non-responders ([3]; p-value 0.00095): 72%
- T1 enhancing lesions at month 12 reduced (improved), predicted responders vs predicted non-responders ([3]; p-value 0.043): 47%
- reduced EDSS progression, predicted responders vs overall cohort ([3]; p-value 0.08): 49%
- ARR reduced (improved), predicted responders vs predicted non-responders ([3]; p-value 2.2×10^-25): 80%
- nrelapse reduced (improved), predicted responders vs predicted non-responders ([3]; p-value 7.70×10^-32): 78%
- overall response rate ([3]; predicted non-responders (40% of patients)): 34%
- relapse rate reduced vs placebo (RRMS subjects): 32%
